Data on three compounds can be found in ChEMBL document CHEMBL5257029, “Contemporary developments in the discovery of selective factor Xa inhibitors: A review” (Eur J Med Chem, 2016).

pKi: −log10 of the molar value.

The target of this assay is Coagulation factor X (Homo sapiens, UniProt P00742). The assay can be described thus: Binding affinity to FXa (unknown origin) assessed as inhibition constant.
Chain of Coagulation factor X (P00742 41-179 limits assumed): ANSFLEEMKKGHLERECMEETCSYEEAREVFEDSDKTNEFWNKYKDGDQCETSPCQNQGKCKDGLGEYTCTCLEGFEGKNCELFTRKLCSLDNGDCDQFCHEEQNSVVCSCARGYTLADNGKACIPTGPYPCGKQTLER
Chain of Coagulation factor X (P00742 235-488 limits assumed): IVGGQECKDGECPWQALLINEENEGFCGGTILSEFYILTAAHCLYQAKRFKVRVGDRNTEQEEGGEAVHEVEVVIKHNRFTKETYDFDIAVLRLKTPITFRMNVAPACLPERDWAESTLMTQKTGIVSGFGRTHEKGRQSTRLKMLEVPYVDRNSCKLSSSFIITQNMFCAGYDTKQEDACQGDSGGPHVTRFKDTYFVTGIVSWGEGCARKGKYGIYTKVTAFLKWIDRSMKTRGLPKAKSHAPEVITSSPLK
As to `NCc1cccc(-n2nc(C(F)(F)F)cc2C(=O)Nc2ccc(-c3ccccc3S(N)(=O)=O)cc2F)c1`, the pKi is 9.04.
Turning to `N=C(N)c1ccc(C[C@@H](NC(=O)NC23CC4CC(CC(C4)C2)C3)C(=O)NCCc2ccccc2)cc1`, the pKi was 7.60.
Next, `CC(C)N1CCC(NS(=O)(=O)CCNC(=O)c2ccc(Cl)s2)CC1`: 8.70.
